Results taken from patent US11612586B2, “Indole regulation of antigen presenting cells” (THE TEXAS A&M UNIVERSITY SYSTEM, priority 2016, dated 2023).

What was measured:
Stat3 = assay: IL-6-induced phospho-Stat3 in BMDCs, flow cytometry; format: cell-based, mouse
Experimental: Flow cytometric analysis was performed on BMDCs conditioned with indole from day 3 of culture and subsequently stimulated with IL-6 (10 ng/ml) for the given times. Cells were stained for phospho-Stat3 and analyzed by flow cytometry.
Flow cytometric analysis of BMDCs from WT or AhrKO mice cultured in the presence of indole or DMF from day 3. DCs were stimulated with IL-6 (10 ng/ml) for the given times and stained for phospho-Stat3, which was detected by flow cytometry. Stat3 signaling is shown as percent of phosphorylated cells (FIG. 10A), and MFI of the Stat3 positive population (FIGS. 10B and 10C). The specific Stat3 inhibitor, cucurbitacin I, was included as a negative control. Representative data is shown from one of four independent experiments.
BMDCs were conditioned with indole from day 3 and then induced Stat3 signaling by stimulation with IL-6 (FIGS. 6A and 6B). While Stat3 has both a tyrosine (Y705) and serine (S727) activation site, tyrosine phosphorylation is mediated by Janus kinases and required for Stat3 nuclear localization and subsequent DNA binding. Thus, the […] was queried for this study.

DSS colitis = assay: BMDC transfer in murine DSS colitis model; format: in vivo, mouse; conditions: mice transferred i.p. with BMDCs conditioned with indole, 5% DSS day 7-14, endpoint day 20
Experimental: FIGS. 21A and 21B graphically illustrate that the in vivo transfer of indole-conditioned DCs prevented shortening of colon in a murine DSS colitis model. BMDCs were cultured with indole, RA, or DMF from day 3. Two million BMDCs were transferred via i.p. injection to WT C57BL/6 mice on days 0, 6, and 9 of the experiment. Mice received 5% dextran sulfate sodium (DSS) ad libitum in their drinking water from day 7 through day 14. Mice were euthanized on day 20 and colons were immediately removed and measured for length (FIG. 21A) and weight (FIG. 21B). n=4 mice/group. *p<0.05 by one-way ANOVA followed by Dunnett's post-test, comparing to unmanipulated control colons.
A hallmark pathological sign of colitis is shortening of the colon, mediated by abscesses forming in the intestinal crypts that disrupt the mucosal architecture and are later replaced by scar tissue. […] Shortening of the colon is an established indicator of colitis pathology in the murine model of DSS colitis.
BMDCs were cultured with indole, RA, or DMF from day 3 as described above. BMDCs were washed, counted, and resuspended in sterile PBS (Ca—Mg—) for transfer to WT C57BL/6 recipients. Two million BMDCs were transferred via i.p. injection on days 0, 6, and 9 of the experiment. Mice received 5% dextran sulfate sodium (DSS, MW=36,000-50,000; MP Biomedicals) ad libitum in their drinking water from day 7 through day 14. […]

Akt [1] = assay: phospho-Akt in BMDCs, flow cytometry; format: cell-based, mouse
Experimental: Flow cytometric analysis was performed on BMDCs conditioned with indole from day 3 of culture and subsequently stimulated with LPS (5 ug/ml) for the given times. Cells were stained for phospho-Akt and analyzed by flow cytometry.
Flow cytometric analysis was performed on BMDCs from WT or AhrKO mice cultured in the presence of indole (1 mM) from day 3. DCs were stimulated with LPS (5 ug/ml) for the given times and stained for phospho-Akt, which was detected by flow cytometry. Percentage of pAkt-positive DCs indicated. Representative data is from one of three independent experiments.
Another central mediator of cellular signaling is the serine/threonine kinase, Akt (also referred to as protein kinase B), which regulates cellular processes including metabolism, growth, proliferation, and survival. The Akt pathway is activated by numerous receptor tyrosine kinases, cytokine receptors, G-protein-coupled receptors, and other molecules which activate the lipid kinase PI3K and result in production of phosphatidylinositol (3,4,5)-trisphosphate (PIPS). This second messenger acts as a docking site at the plasma membrane for Akt where phosphorylation and activation occurs. Akt is located upstream of NF-kB and can induce NF-kB signaling via phosphorylation of IKKα and Tp12. The effect of indole on Akt phosphorylation was assessed to determine whether indole's inhibition of NF-kB might be a secondary effect due to modulation of an upstream target.
(§1) The inventors performed a series of assays where bone marrow derived macrophages (BMDMs), bone marrow derived dendritic cells (BMDCs), and splenic dendritic cells (splenic DCs), were exposed to a series of TDMMs, including indole, indole-3-acetate (I3AT), 5-hydroxyindole (5HI), and indole-3-pyruvate (I3P), as well as indole-3-carbinol (I3C; a plant derived compound) to be used for a positive control (1 mM for 24 hours). The BMDMs and BMDCs were stimulated with LPS for 4 hours and assayed at day 7 for expression of various pro-inflammatory cytokines. In a similar assay, the BMDMs and BMDCs were stimulated with LPS or CpG, respectively, for 15 minutes and assayed for pAKT and pERK signaling, which is a reflection of pro-inflammatory response.

Akt [2] = assay: phospho-Akt signaling in BMDMs; format: cell-based, mouse
Experimental: The PI3K/Akt and MAPK/Erk signaling pathways regulate many cellular processes including survival, apoptosis, growth, and cytokine production. […] Specifically, BMDMs were treated with indole (1 mM) or DMF control for 18 hours, then stimulated with LPS (10 ug/ml) or CpG (5 uM) for 30 minutes. Cells were stained for phospho-Akt or phospho-Erk and analyzed by flow cytometry.
as §1

[3] = indole-DCs generated from WT or AhR−/− bone marrow

## c1ccc2[nH]ccc2c1 [Indole, indole]
Stat3; BMDCs, 1 mM indole from day 3, IL-6 10 ng/ml, 15 minutes post-stimulation
  peak phosphorylation of Stat3 (percentage of DCs): 8%
Stat3; BMDCs, indole from day 3, IL-6 stimulation, throughout 60 minute timecourse
  suppression of phospho-Stat3 MFI: ≥ 2 fold
Stat3; [3]
  inhibition of Stat3 phospho-signaling, WT versus AhR−/−: nearly equivalent inhibition
DSS colitis
  average colon length: ~6 cm
Akt [1]; BMDCs, 1 mM TDMM 24 hours, CpG (5 uM) 15 minutes
  pAKT: ↓↓
Akt [1]; BMDCs, 1 mM indole, 30 minutes post-LPS stimulation
  reduction of phospho-Akt: over 50%
Akt [1]; BMDCs, indole versus controls, unstimulated
  phospho-Akt in the absence of external stimulation: No difference
Akt [1]; [3]
  inhibition of Akt phospho-signaling, WT versus AhR−/−: nearly equivalent inhibition
Akt [2]; 1 mM TDMM 24 hours, LPS 1 ug/ml 15 minutes
  pAKT: ↓
Akt [2]; indole 1 mM 18 hours, LPS (10 ug/ml) or CpG (5 uM) 30 minutes
  dampening of pAkt signaling: approximately 50%
